In patent US9063143B2, “Cancer platinum resistance detection and sensitization method” (University of South Florida, priority 2008, dated 2015):

What was measured:
Experiment in all cases: MTT cell proliferation assay, cisplatin resistance
Assay type in all cases: cell-based
Settings in all cases: MTT proliferation rate at 2 μg/mL
[1] = tested on: A2008 ovarian cancer cell line
Procedure: (§1) Ovarian cancer cell lines (C13, OV2008, A2780S, A2780CP, IGROV1, T8, A2008, IOSER, and OVCAR5) were grown in RPMI-1640 supplemented with 10% fetal bovine serum, 1% sodium pyruvate, and 1% nonessential amino acids. IOSER cells were grown in 1:1 MCBD105 and Medium 199, HEPES, Bovine Pituitary Extract, Insulin, hEGF, hydrocortisone and 15% FBS. All tissue culture reagents were obtained from Sigma Aldrich (St Louis, Mo.). Cells were maintained in a CO2 incubator at 37° C. and subcultured at 70% confluence. The cell lines consist of two from the NCI60 panel: IGR-OV1 (doubling time 31) and OVCAR-5 (doubling time 48.8). Several cell lines have mother/daughter relationships including A2008 and daughter C13; as well as A2780S/A2780CP.
(§2) To induce the development of platinum-resistance, the nine ovarian cancer cell lines were subjected to serial treatments with increasing dose cisplatin (Group A: 1 and 3 μg/mL, Group B: 2 and 4 μg/mL, and Group C: 3 and 5 μg/mL) using a protocol previously described by Hong et al (Antisense Bcl2 oligonucleotide in cisplatin-resistant bladder cancer cell lines. BJU Int. 2002 July; 90(1):113-7). For each of the 9 cell lines, three different dosage schedules were used: Schedule A—3 treatment/recovery cycles at 1 μg/mL, followed by 3 treatment/recovery cycles at 3 μg/mL; Schedule B—3 treatment/recovery cycles at 2 μg/mL, followed by 3 treatment/recovery cycles at 4 μg/mL; Schedule C—3 treatment/recovery cycles at 3 μg/mL, followed by 3 treatment/recovery cycles at 5 μg/mL. After each treatment, cells were allowed to recover before re-treatment. Gene expression analysis was performed prior to treatment, after 3 and 6 treatments. The experiment design and notations used for each treatment schedule are outlined in Table 1.
(§3) Thus, for each of the 9 cell lines, 3 different starting doses of cisplatin were used with three different recovery cycles, such that a total of 162 treatment/recovery cycles were induced. Increasing platinum-resistance was confirmed by MTT cell proliferation assays prior to cisplatin treatment, and after 3 and 6 treatment/recovery cycles (for each treatment schedule).
(§4) MTT solution was produced by dissolving 3-(4,5-Dimethylthiazol-2-yl)-2,5-diphenyltetrazolium bromide (MTT; Sigma, St. Louis, Mo., USA) in phosphate-buffered saline (PBS; 5 mg/mL). Cells (1×10^3) were incubated with 100 μL of culture medium for 48 h in 96-well plates, and 100 μL of MTT solution with RPMI media in a 1:10 concentration was added to each well. After 4 h of incubation, medium was decanted. 100 μL of acidified isopropanol was added to each well. […] MTT assays were performed independently in triplicate per each experimental time point and means reported. For each cell line at each time-point for each schedule, an IC50 was calculated using MTT assay, as well as a percent cell survival at a fixed cisplatin concentration (based upon the mid-point of the log-phase of the dose-response curve for each cell line at baseline), seen in Table 2.
(§5) Prior to treatment (baseline), and at each dose level following treatment (3 and 6 treatment/recovery cycles) and cell recovery, RNA was extracted and genome-wide expression analysis performed using U133 plus 2.0 Affymetrix chips and cisplatin-resistance was quantified using MTT assay. In parallel, at each of these time-points, RNA was extracted and genome-wide expression analysis performed using U133 plus 2.0 Affymetrix chips. Array analysis was performed on 72 samples. Following recovery from each dose level, cells were evaluated for platinum-resistance using MTT proliferation assay, seen in Table 3. Cell line recovery was defined as the time taken for the cells to repopulate in a normal fashion (to reach 70% confluence in 48 hours). Cell line proliferation rate at 2 μg/mL was used as a measure of resistance.

[2] = tested on: A2780CP ovarian cancer cell line
Procedure: as §1, §2, §3, §4, §5

[3] = tested on: A2780S ovarian cancer cell line
Procedure: as §1, §2, §3, §4, §5

[4] = tested on: C13 ovarian cancer cell line
Procedure: as §1, §2, §3, §4, §5

[5] = tested on: IGROV1 ovarian cancer cell line
Procedure: as §1, §2, §3, §4, §5

[6] = tested on: IOSER cells
Procedure: as §1, §2, §3, §4, §5

[7] = tested on: OV2008 ovarian cancer cell line
Procedure: as §1, §2, §3, §4, §5

[8] = tested on: OVCAR5 ovarian cancer cell line
Procedure: as §1, §2, §3, §4, §5

[9] = tested on: T8 ovarian cancer cell line
Procedure: as §1, §2, §3, §4, §5

SMILES: N.N.[Cl][Pt][Cl] [cisplatin]
- Cell population measurements ([1]; A2008 after cisplatin regimen 1.33): 19
- Cell population measurements ([1]; A2008 after cisplatin regimen 2.33): 33
- Cell population measurements ([1]; A2008 after cisplatin regimen 3.33): 25
- Cell population measurements ([1]; A2008 after cisplatin regimen 3.36): 25.6
- Cell population measurements ([1]; A2008 after cisplatin regimen 4.36): 29
- Cell population measurements ([1]; A2008 after cisplatin regimen 5.36): 37
- Cell population measurements ([2]; A2780CP after cisplatin regimen 1.33): 84
- Cell population measurements ([2]; A2780CP after cisplatin regimen 2.33): 100
- Cell population measurements ([2]; A2780CP after cisplatin regimen 3.33): 91
- Cell population measurements ([2]; A2780CP after cisplatin regimen 3.36): 100
- Cell population measurements ([2]; A2780CP after cisplatin regimen 4.36): 83
- Cell population measurements ([2]; A2780CP after cisplatin regimen 5.36): 98
- Cell population measurements ([3]; A2780S after cisplatin regimen 1.33): 26
- Cell population measurements ([3]; A2780S after cisplatin regimen 2.33): 39
- Cell population measurements ([3]; A2780S after cisplatin regimen 3.33): 64
- Cell population measurements ([3]; A2780S after cisplatin regimen 3.36): 30.5
- Cell population measurements ([3]; A2780S after cisplatin regimen 4.36): 87
- Cell population measurements ([3]; A2780S after cisplatin regimen 5.36): 72
- Cell population measurements ([4]; C13 after cisplatin regimen 1.33): 83
- Cell population measurements ([4]; C13 after cisplatin regimen 2.33): 73
- Cell population measurements ([4]; C13 after cisplatin regimen 3.33): 71
- Cell population measurements ([4]; C13 after cisplatin regimen 3.36): 53
- Cell population measurements ([4]; C13 after cisplatin regimen 4.36): 91
- Cell population measurements ([4]; C13 after cisplatin regimen 5.36): 67
- Cell population measurements ([5]; IGROV1 after cisplatin regimen 1.33): 69
- Cell population measurements ([5]; IGROV1 after cisplatin regimen 2.33): 48
- Cell population measurements ([5]; IGROV1 after cisplatin regimen 3.33): 55
- Cell population measurements ([5]; IGROV1 after cisplatin regimen 3.36): 68.3
- Cell population measurements ([5]; IGROV1 after cisplatin regimen 4.36): 69
- Cell population measurements ([5]; IGROV1 after cisplatin regimen 5.36): 58
- Cell population measurements ([6]; IOSER after cisplatin regimen 1.33): 62
- Cell population measurements ([6]; IOSER after cisplatin regimen 2.33): 70
- Cell population measurements ([6]; IOSER after cisplatin regimen 3.33): 79
- Cell population measurements ([6]; IOSER after cisplatin regimen 3.36): 89
- Cell population measurements ([6]; IOSER after cisplatin regimen 4.36): 71
- Cell population measurements ([6]; IOSER after cisplatin regimen 5.36): 84
- Cell population measurements ([7]; OV2008 after cisplatin regimen 1.33): 62
- Cell population measurements ([7]; OV2008 after cisplatin regimen 2.33): 54
- Cell population measurements ([7]; OV2008 after cisplatin regimen 3.33): 67
- Cell population measurements ([7]; OV2008 after cisplatin regimen 3.36): 64.8
- Cell population measurements ([7]; OV2008 after cisplatin regimen 4.36): 98
- Cell population measurements ([7]; OV2008 after cisplatin regimen 5.36): 86
- Cell population measurements ([8]; OVCAR5 after cisplatin regimen 1.33): 49
- Cell population measurements ([8]; OVCAR5 after cisplatin regimen 2.33): 41
- Cell population measurements ([8]; OVCAR5 after cisplatin regimen 3.33): 47
- Cell population measurements ([8]; OVCAR5 after cisplatin regimen 3.36): 66.5
- Cell population measurements ([8]; OVCAR5 after cisplatin regimen 4.36): 69
- Cell population measurements ([8]; OVCAR5 after cisplatin regimen 5.36): 63
- Cell population measurements ([9]; T8 after cisplatin regimen 1.33): 42
- Cell population measurements ([9]; T8 after cisplatin regimen 2.33): 64
- Cell population measurements ([9]; T8 after cisplatin regimen 3.33): 67
- Cell population measurements ([9]; T8 after cisplatin regimen 3.36): 68.4
- Cell population measurements ([9]; T8 after cisplatin regimen 4.36): 69
- Cell population measurements ([9]; T8 after cisplatin regimen 5.36): 62
